Source: PubChem BioAssay AID256 (DTP/NCI, 2004)
Values joined by “and” are separate entries in the source; they are usually repeats but may differ in a detail not shown here. Equal values may be shown once. Toxic doses and inconclusive results are not listed. The calls were made as follows: active = survival T/C of 150% or more; inactive = T/C below 125% in these data.

Tested on: CD2F1 mice, L1210 leukemia ip, survival T/C
Assay: NCI In Vivo Anticancer Drug Screen. Data for tumor model L1210 Leukemia (intraperitoneal) in CD2F1 (CDF1) mice
Settings: endpoint: mean survival time, higher = longer survival
Summary of the method: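 Mice carrying a transplanted tumor received test compound or vehicle alone. The value is the measurement in the treated group divided by that in the vehicle-treated control group.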

[1] = dose: 6.25 mg/kg/injection, schedule: Q01DX009 (ip), vehicle: saline with Tween-80
[2] = dose: 12.5 mg/kg/injection, schedule: Q01DX009 (ip), vehicle: saline with Tween-80
[3] = dose: 100.0 mg/kg/injection, schedule: Q01DX001 (ip), vehicle: saline with Tween-80
[4] = dose: 100.0 mg/kg/injection, schedule: Q04DX003 (ip), vehicle: saline
[5] = dose: 200.0 mg/kg/injection, schedule: Q04DX003 (ip), vehicle: saline
[6] = dose: 400.0 mg/kg/injection, schedule: Q04DX003 (ip), vehicle: saline
[7] = dose: 100.0 mg/kg/injection, schedule: Q04DX003 (ip), vehicle: saline with Tween-80
[8] = dose: 200.0 mg/kg/injection, schedule: Q04DX003 (ip), vehicle: saline with Tween-80
[9] = dose: 400.0 mg/kg/injection, schedule: Q04DX003 (ip), vehicle: saline with Tween-80
[10] = dose: 100.0 mg/kg/injection, schedule: Q01DX009 (ip), vehicle: saline with Tween-80
[11] = dose: 200.0 mg/kg/injection, schedule: Q01DX009 (ip), vehicle: saline with Tween-80
[12] = dose: 400.0 mg/kg/injection, schedule: Q01DX009 (ip), vehicle: saline with Tween-80
[13] = dose: 200.0 mg/kg/injection, schedule: Q04DX002 (ip), vehicle: saline with Tween-80
[14] = dose: 200.0 mg/kg/injection, schedule: Q01DX001 (ip), vehicle: saline with Tween-80
[15] = dose: 400.0 mg/kg/injection, schedule: Q01DX001 (ip), vehicle: saline with Tween-80
[16] = dose: 25.0 mg/kg/injection, schedule: Q01DX009 (ip), vehicle: saline with Tween-80

Measured: T/C

CC1(C)CC(=O)C2=C(C1)OC1(O)CC(C)(C)CC(=O)C1C2c1ccccc1[N+](=O)[O-] (configuration not stated)
inactive: dose: 3.13 mg/kg/injection, schedule: Q01DX001 (ip), vehicle: saline with Tween-80 103 % of control | dose: 3.13 mg/kg/injection, schedule: Q01DX009 (ip), vehicle: saline with Tween-80 100 % of control | dose: 6.25 mg/kg/injection, schedule: Q01DX001 (ip), vehicle: saline with Tween-80 90 % of control | [1] 107 % of control | dose: 12.5 mg/kg/injection, schedule: Q01DX001 (ip), vehicle: saline with Tween-80 97 % of control | [2] 97 % of control | [3] 87 % of control

CCCCCC(O)C(O)CC(O)C(O)CCCCCCCC(=O)O (configuration not stated)
inactive: [4] 94 % of control | [5] 91 % of control | [6] 100 % of control

[I][Pt+2][I].[NH-]c1ccc(F)cc1.[NH-]c1ccc(F)cc1
inactive: dose: 3.13 mg/kg/injection, schedule: Q04DX003 (ip), vehicle: distilled water + Tween-80 108 % of control | dose: 6.25 mg/kg/injection, schedule: Q04DX003 (ip), vehicle: distilled water + Tween-80 108 % of control | dose: 12.5 mg/kg/injection, schedule: Q04DX003 (ip), vehicle: distilled water + Tween-80 98 % of control | dose: 25.0 mg/kg/injection, schedule: Q04DX003 (ip), vehicle: distilled water + Tween-80 101 % of control | dose: 50.0 mg/kg/injection, schedule: Q04DX003 (ip), vehicle: distilled water + Tween-80 108 % of control | dose: 100.0 mg/kg/injection, schedule: Q04DX003 (ip), vehicle: distilled water + Tween-80 87 % of control

O=P(O)(O)c1ccccc1 (tested in a mixture with another compound)
inactive: [4] 100 % of control | [5] 91 % of control | [6] 95 % of control

O=C(Nc1ccccc1)OCCCl
inactive: [7] 100 % of control | [8] 97 % of control | [9] 100 % of control

COc1ccc(CC(O)CO)cc1OCc1ccccc1 (configuration not stated)
inactive: [10] 95 % of control | [11] 96 % of control | [12] 98 % of control

CC(=O)Nc1ncc(CN2CCCCC2)s1
inactive: dose: 100.0 mg/kg/injection, schedule: Q04DX002 (ip), vehicle: Klucel (hydroxypropylcellulose) (HPC) 100 % of control | dose: 200.0 mg/kg/injection, schedule: Q04DX002 (ip), vehicle: Klucel (hydroxypropylcellulose) (HPC) 103 % of control

CCC1(C)C(C#N)C(=O)NC(=O)C1C#N (configuration not stated)
inactive: dose: 50.0 mg/kg/injection, schedule: Q01DX009 (ip), vehicle: saline sonified 96 % of control | dose: 100.0 mg/kg/injection, schedule: Q01DX009 (ip), vehicle: saline sonified 90 % of control | [7] 100 % of control | [8] 100 % of control

O=C(O)C1CCc2c(cnn2-c2ccccc2)C1 (configuration not stated)
inactive: dose: 100.0 mg/kg/injection, schedule: Q04DX002 (ip), vehicle: saline with Tween-80 88 % of control | [13] 100 % of control | dose: 400.0 mg/kg/injection, schedule: Q04DX002 (ip), vehicle: saline with Tween-80 92 % of control

CC1SC(C)SC(C)S1 (configuration not stated)
inactive: dose: 75.0 mg/kg/injection, schedule: Q01DX001 (ip), vehicle: saline with Tween-80 98 % of control | dose: 150.0 mg/kg/injection, schedule: Q01DX001 (ip), vehicle: saline with Tween-80 98 % of control | dose: 300.0 mg/kg/injection, schedule: Q01DX001 (ip), vehicle: saline with Tween-80 102 % of control

Nc1cc(=S)c2ncn(C3OC(CO)C(O)C3O)c2[nH]1 (configuration not stated)
inactive: dose: 6.25 mg/kg/injection, schedule: Q01DX005 (ip), vehicle: water 89 % of control | dose: 12.5 mg/kg/injection, schedule: Q01DX005 (ip), vehicle: water 101 % of control | dose: 25.0 mg/kg/injection, schedule: Q01DX005 (ip), vehicle: water 89 % of control | dose: 50.0 mg/kg/injection, schedule: Q01DX005 (ip), vehicle: water 96 % of control | [3] 100 % of control | dose: 100.0 mg/kg/injection, schedule: Q01DX005 (ip), vehicle: water 93 % of control | [14] 91 % of control | [15] 100 % of control

Cc1ccc(S(=O)(=O)Oc2cccc(C)c2)cc1
inactive: [10] 96 % of control | [7] 100 % of control | [11] 96 % of control | [8] 99 % of control | [12] 91 % of control | [9] 94 % of control

CC(=O)Nc1ccc(Nc2ccc(C(=C3C=CC(=[N+](C)CCC#N)C=C3)c3ccc(N(C)CCC#N)cc3)cc2)cc1
inactive: dose: 12.0 mg/kg/injection, schedule: Q01DX009 (ip), vehicle: saline with Tween-80 107 % of control | [2] 107 % of control | [16] 105 % of control and 109 % of control | [13] 106 % of control

O=C(Oc1ccccc1)C(O)CO (configuration not stated)
inactive: [3] 104 % of control | [14] 101 % of control | [15] 97 % of control

CC(=O)N(C)c1ccc(NC(=O)Nc2ccc(C)cc2[N+](=O)[O-])cc1
inactive: dose: 100.0 mg/kg/injection, schedule: Q01DX009 (ip), vehicle: Klucel (hydroxypropylcellulose) (HPC) 95 % of control | dose: 200.0 mg/kg/injection, schedule: Q01DX009 (ip), vehicle: Klucel (hydroxypropylcellulose) (HPC) 92 % of control | dose: 400.0 mg/kg/injection, schedule: Q01DX009 (ip), vehicle: Klucel (hydroxypropylcellulose) (HPC) 92 % of control

C#CCOC1CCCCO1 (configuration not stated)
inactive: dose: 25.0 mg/kg/injection, schedule: Q01DX009 (ip), vehicle: saline 102 % of control | dose: 50.0 mg/kg/injection, schedule: Q01DX009 (ip), vehicle: saline 108 % of control | dose: 100.0 mg/kg/injection, schedule: Q01DX009 (ip), vehicle: saline 106 % of control

CCOc1cc(C(F)(F)F)nc2c3c(cc(OC)c12)CCCN3CC
inactive: [10] 98 % of control | [12] 90 % of control

CCN(c1ccccc1)S(=O)(=O)CS(=O)(=O)N(CC)c1ccccc1
inactive: dose: 100.0 mg/kg/injection, schedule: Q01DX001 (ip), vehicle: Klucel (hydroxypropylcellulose) (HPC) 104 % of control | dose: 200.0 mg/kg/injection, schedule: Q01DX001 (ip), vehicle: Klucel (hydroxypropylcellulose) (HPC) 96 % of control | dose: 400.0 mg/kg/injection, schedule: Q01DX001 (ip), vehicle: Klucel (hydroxypropylcellulose) (HPC) 93 % of control

Cc1ccc(C(=O)C[n+]2cccc3ccccc32)c(C)c1
inactive: [1] 101 % of control | [2] 94 % of control | [16] 95 % of control

Oc1ccc(CCCl)cc1
inactive: dose: 50.0 mg/kg/injection, schedule: Q01DX009 (ip), vehicle: saline with Tween-80 91 % of control | [10] 102 % of control | [11] 102 % of control

C=C(C)C(=O)OCCO (tested in a mixture with another compound)
inactive: [10] 106 % of control | [7] 98 % of control | [11] 101 % of control | [8] 98 % of control | [12] 100 % of control | [9] 100 % of control

CCCCOC(=O)C1C2CCC(O2)C1C(N)=O (configuration not stated)
inactive: dose: 25.0 mg/kg/injection, schedule: Q04DX002 (ip), vehicle: saline with Tween-80 95 % of control | dose: 50.0 mg/kg/injection, schedule: Q04DX002 (ip), vehicle: saline with Tween-80 101 % of control

COc1ccc(-c2cc(C(=O)N/N=C/c3ccc([N+](=O)[O-])cc3)c3ccc(C)cc3n2)cc1OC
inactive: [10] 93 % of control | [11] 106 % of control | [12] 108 % of control

COc1cc2c3cc1Oc1c(OC)c(OC)cc4c1[C@@H](Cc1ccc(O)c(c1)Oc1ccc(cc1)C[C@@H]3N(C)CC2)N(C)CC4
inactive: dose: 75.0 mg/kg/injection, schedule: Q01DX001 (ip), vehicle: other 96 % of control | dose: 150.0 mg/kg/injection, schedule: Q01DX001 (ip), vehicle: other 100 % of control

Nc1ncnc2c1ncn2C1CC(O)C(CO)O1 (configuration not stated)
inactive: dose: 600.0 mg/kg/injection, schedule: Q03HX024 (ip), vehicle: saline with Tween-80 97 % of control | dose: 900.0 mg/kg/injection, schedule: Q03HX024 (ip), vehicle: saline with Tween-80 103 % of control

CC1(C)/C(=C/c2ccccc2)C(=O)c2ccccc21
inactive: [10] 100 % of control | [7] 102 % of control | [11] 100 % of control | [8] 92 % of control | [12] 94 % of control | [9] 102 % of control

O=C(OC1COC(OC(=O)c2ccccc2)C(OC(=O)c2ccccc2)C1OC(=O)c1ccccc1)c1ccccc1 (configuration not stated)
inactive: [10] 97 % of control | [7] 101 % of control | [11] 95 % of control | [8] 86 % of control | [12] 97 % of control | [9] 95 % of control
